# From US20260026522A1, “METHODS AND DEVICE FOR CO-TREATMENT OF CROP PROTECTION CHEMICALS WITH PLANT GROWTH REGULATORS” (AGROFRESH INC., priority 2016, published 2026)
# Tests used:
# [1] = system: Penicillium expansum and Botrytis cinerea; experiment: Fungicide fogging of wounded, inoculated Golden Delicious apples: fungal lesion size; format: in vivo; conditions: 24 h fog at 20° C., measured Day 3 or 4
# Text: Freshly harvested plants and crops, such as fruit crops (e.g. apple fruits), were wounded and inoculated with fungal pathogens. Immediately after harvest on Day 0, Golden Delicious apples were wounded on the left and/or the right sides of the fruit. The wounds were immediately inoculated with one or more fungal strains. For example, the wounds on the left side of the fruit were inoculated with Penicillium, while the wounds on the right side of the fruit were inoculated with Botrytis. After inoculation, the apples remained at 20° C. throughout the remainder of the experimental trial.
# Inoculated fruits were separated in preparation for an experimental trial that comprised three replicates of 10-fruit cohorts each totaling 5.1 kg of Golden Delicious apples (see Table 1). After inoculation, the apples were held at 20° C. in a closed, controlled environment until fungicide treatment. Prior to fungicide treatment, a fruit cohort was removed from the controlled environment and transported to a sealed treatment chamber having a temperature of 20° C. The fruit cohorts were each treated with a single respective fungicide on Day 0 (i.e., day of harvest), as well as Days 1, 2, 3, and/or 4 after harvest (see Table 2).
# More specifically, each fruit cohort was treated a single time for 24 hours with a specific fungicide solution comprising the following active ingredients: benzoxaborole (BOB), thiabendazole (TBZ), pyrimethanil (PYR), and fludioxonil (FDL) as described in Table 1 below. The fungicide solutions used to treat inoculated apples comprised the following concentration of active ingredients: a 100 g/L of benzoxaborole (BOB), thiabendazole (TBZ), and fludioxonil (FDL), or a 160 g/L of pyrimethanil (PYR), respectively (see Table 1).
# Inoculated fruits were also treated with a propylene glycol-inoculated negative control (GLY IC). This propylene glycol-inoculated control treatment comprised only propylene glycol, a common fungicide treatment carrier, with no active ingredient (see Table 1). In addition, another cohort of inoculated fruits was not treated with a fungicide at all to produce an untreated inoculated control (UNTRT IC).
# In this trial, replicate cohorts of Golden Delicious apples were treated by fogging with 167 μL of the benzoxaborole (BOB) solution, 270 μL of the thiabendazole (TBZ) solution, 410 μL of the pyrimethanil (PYR) solution, or 170 μL of the fludioxonil (FDL) solution, respectively (see Table 1). The fungicide fogging treatment was applied to the Golden Delicious apples in the sealed treatment chamber comprising a volume of 1.1 m^3 such that the final concentration of active ingredient (“ai”) of each fungicide applied to the Golden Delicious apples during the trial was 3.3 mg/kg of benzoxaborole (BOB), 8.0 mg/kg of thiabendazole (TBZ) solution, 8.5 mg/kg of pyrimethanil (PYR) solution, and 3.3 mg/kg of fludioxonil (FDL), respectively (see Table 1).
# After 24 hours of fungicide treatment in the sealed chamber at 20° C., treated apples were returned back to the closed, controlled environment for storage. Storage of treated fruit occurred for at least 12 hours and for up to approximately 72 hours until Day 3 or Day 4 when fungal lesions on the treated fruit were measured (see Table 2). For example, inoculated fruit cohorts treated with fungicide on Day 0, where returned to the control chamber on Day 1 and stored there for at least 12 hours (e.g., approximately 48-72 hours) until their fungal lesions were measured on Days 3 or 4 (see Table 2). Inoculated fruit cohorts treated with fungicide on Day 1, where returned to the control chamber on Day 2 and stored there for at least 12 hours (e.g., approximately 24-48 hours) until their fungal lesions were measured on Days 3 or 4 (see Table 2). […]
# [2] = system: Botrytis cinerea; experiment: Fungicide fogging of wounded, inoculated Red Delicious apples: Botrytis lesion size; format: in vivo, Botrytis cinerea on Red Delicious apples; conditions: measured Day 4
# Procedure: (§1) This experiment was conducted exactly the same as described above in Example 1 unless noted otherwise. For example, instead of Golden Delicious apples, this experiment was performed on Red Delicious apples, which are harvested later in the season than Golden Delicious apples. Freshly harvested Red Delicious apples were wounded on the left and right side with Penicillium and Botrytis fungal pathogens, respectively. After inoculation, the apples remained at 20° C. throughout the remainder of the experimental trial to measure growth of the Botrytis fungal pathogen. Inoculated fruits were separated in preparation for an initial trial which comprised three replicates of 10-fruit cohorts totaling 5.5 kg of Red Delicious apples, respectively (see Table 1).
# (§2) In this trial, replicate cohorts of Red Delicious apples were fog treated with 250 μL of the benzoxaborole (BOB) solution, 620 μL of the thiabendazole (TBZ) solution, 410 μL of the pyrimethanil (PYR) solution, or 250 μL of the fludioxonil (FDL) solution, respectively (see Table 1). The fungicide fogging treatment was applied to the Red Delicious apples in the sealed treatment chamber comprising a volume of 1.1 m^3 such that the final concentration of active ingredient (“ai”) of each fungicide applied to the Red Delicious apples during the trial was 4.6 mg/kg of benzoxaborole (BOB), 11.2 mg/kg of thiabendazole (TBZ) solution, 11.8 mg/kg of pyrimethanil (PYR) solution, and 4.6 mg/kg of fludioxonil (FDL), respectively (see Table 1).
# (§3) After 24 hours of fungicide treatment in the sealed chamber at 20° C., treated apples were returned back to the closed, controlled environment for storage. As described in Example 1, storage of treated Red Delicious apples occurred for at least 12 hours and for up to approximately 72 hours until Day 4 when fungal lesions on the treated Red Delicious apples were measured (see Table 2).
# [3] = system: Penicillium expansum; experiment: Fungicide fogging of wounded, inoculated Red Delicious apples: Penicillium lesion size; format: in vivo, Penicillium expansum on Red Delicious apples; conditions: for Fungal Lesion Diameter: Penicillium expansum, measured Day 4; for Inhibition of Penicillium expansum fungal growth compared to untreated and propylene glycol controls / Penicillium expansum lesion sizes, range over treatment days: treated on Days 0-3
# Procedure: as §1, §2, §3
# This experiment was conducted exactly the same as described above in Example 2 unless noted otherwise. In particular, freshly harvested Red Delicious apples were wounded on the left and right side with Penicillium and Botrytis fungal pathogens, respectively. After inoculation, the apples remained at 20° C. throughout the remainder of the experimental trial to measure growth of the Penicillium fungal pathogen.
# [4] = Fungicide Fog Day 0, Penicillium and Botrytis lesions averaged
# [5] = Fungicide Fog Day 1, Penicillium and Botrytis lesions averaged
# [6] = Fungicide Fog Day 2, Penicillium and Botrytis lesions averaged
# [7] = Fungicide Fog Day 0, 24 h fog at 20° C.
# [8] = Fungicide Fog Day 1, 24 h fog at 20° C.
# [9] = Fungicide Fog Day 2, 24 h fog at 20° C.
# [10] = Fungicide Fog Day 3, 24 h fog at 20° C.
compound,measurement,setting,value
"N#CC1=CN=CC1c1cccc2c1OC(F)(F)O2 (stereo not shown) [FDL, 4-(2,2-difluoro-1,3-benzodioxol-4-yl)-1H-pyrrole-3-carbonitrile]",Fungal Lesion Diameter,[1]; [4],1.6 mm
same,Fungal Lesion Diameter,[1]; [5],2.7 mm
same,Fungal Lesion Diameter,[1]; [6],3.0 mm
same,Fungal Lesion Diameter,[2]; [7],4.1 mm
same,Fungal Lesion Diameter,[2]; [8],7.0 mm
same,Fungal Lesion Diameter,[2]; [9],8.2 mm
same,Fungal Lesion Diameter,[2]; [10],11.7 mm
same,Fungal Lesion Diameter,[3]; [7],11.0 mm
same,Fungal Lesion Diameter,[3]; [8],13.2 mm
same,Fungal Lesion Diameter,[3]; [9],13.4 mm
same,Fungal Lesion Diameter,[3]; [10],15.5 mm
"Cc1cc(C)nc(Nc2ccccc2)n1 [PYR, 4,6-Dimethyl-N-phenylpyrimidin-2-amine]",Fungal Lesion Diameter,[1]; [4],0.4 mm
same,Fungal Lesion Diameter,[1]; [5],1.3 mm
same,Fungal Lesion Diameter,[1]; [6],3.6 mm
same,Fungal Lesion Diameter,[2]; [7],9.2 mm
same,Fungal Lesion Diameter,[2]; [8],10.4 mm
same,Fungal Lesion Diameter,[2]; [9],12.4 mm
same,Fungal Lesion Diameter,[2]; [10],12.5 mm
same,Fungal Lesion Diameter,[3]; [7],17.2 mm
same,Fungal Lesion Diameter,[3]; [8],17.1 mm
same,Fungal Lesion Diameter,[3]; [9],18.3 mm
same,Fungal Lesion Diameter,[3]; [10],18.3 mm
same,Inhibition of Penicillium expansum fungal growth compared to untreated and propylene glycol controls,[3],Neither treatments comprising pyrimethanil (PYR) nor thiabendazole (TBZ) showed a consistent increase in inhibition of Penicillium expansum fungal growth or any significant difference
same,"Penicillium expansum lesion sizes, range over treatment days",[3],17.1-18.3 mm
"c1ccc2[nH]c(-c3cscn3)nc2c1 [TBZ, 4-(1H-1,3-Benzodiazol-2-yl)-1,3-thiazole]",Fungal Lesion Diameter,[1]; [4],2.0 mm
same,Fungal Lesion Diameter,[1]; [5],4.5 mm
same,Fungal Lesion Diameter,[1]; [6],4.9 mm
same,Fungal Lesion Diameter,[2]; [7],10.9 mm
same,Fungal Lesion Diameter,[2]; [8],12.1 mm
same,Fungal Lesion Diameter,[2]; [9],12.7 mm
same,Fungal Lesion Diameter,[2]; [10],12.4 mm
same,Fungal Lesion Diameter,[3]; [7],18.0 mm
same,Fungal Lesion Diameter,[3]; [8],18.4 mm
same,Fungal Lesion Diameter,[3]; [9],17.6 mm
same,Fungal Lesion Diameter,[3]; [10],18.3 mm
same,Inhibition of Penicillium expansum fungal growth compared to untreated and propylene glycol controls,[3],Neither treatments comprising pyrimethanil (PYR) nor thiabendazole (TBZ) showed a consistent increase in inhibition of Penicillium expansum fungal growth or any significant difference
same,"Penicillium expansum lesion sizes, range over treatment days",[3],17.6-18.4 mm
